The data set is described as follows: solvent given as SMILES.

Where the note is “in ClCCl”, `COc1cc2c(cc1OC)C1=C[C@H](c3ccccc3)C3(C(C#N)=C(C#N)N1CC2)c1cc(Br)ccc1-c1ccc(Br)cc13` showed an emission maximum of 403 nm.

In turn, `CCCCN1C(=O)C2=C(c3ccc(-c4ccccc4)cc3)NC(=O)C2=C1c1ccc(-c2ccccc2)cc1` gave an emission maximum (in ClCCl) of 545 nm.

Take `CCCCn1c(=O)c2cc3ccc4cccc5ccc(c2c1=O)c3c45`: the emission maximum (in ClC(Cl)Cl) stood at 460 nm.

Molecule `c1ccc(N2c3ccc4ccccc4c3-c3c4ccccc4cc[n+]3[B-]2(c2ccccc2)c2ccccc2)cc1` displayed an emission maximum (in Cc1ccccc1) of 623 nm.

As for `CC1(C)Cc2c(c3ccccc3c3nc4ccccc4nc23)O1`, the emission maximum is, setting by setting: (in C1CCCCC1) 475.96 nm; (in C1CCOC1) 505.05 nm; (in CN(C)C=O) 521.92 nm; (in CO) 529.1 nm; (in ClC(Cl)Cl) 505.05 nm; (in c1ccccc1) 483.09 nm.

Take `Cc1ccc(C)n1-c1ccc(C#N)cc1`: the emission maximum was determined as 501 nm (in C1CCOC1); 406 nm (in CCCCCC); 480 nm (in CCCCCl); 479 nm (in CCOCC); 517 nm (in ClCCl).

For `CCNc1ccc2c(C(F)(F)F)cc(=O)oc2c1`, the emission maximum runs as follows: (in C1CCC2CCCCC2C1) 420 nm; (in C1CCCCC1) 417 nm; (in CC1CCCCC1) 417 nm; (in CC#N) 485 nm; (in CC(C)=O) 485 nm; (in CC(C)O) 490 nm. Besides, the emission maximum reads like this: (in CCC(C)CC) 415 nm; (in CCCC(C)C) 415 nm; (in CCCCCC) 417 nm; (in CCCCCCO) 490 nm; (in CCCCO) 493 nm; (in CCO) 500 nm. The emission maximum (in CCOC(C)=O) is listed as 478 nm and the emission maximum (in CO) was found to be 500 nm.

As for `O=C1CCCC2=C1C(c1cccc(Cl)c1)c1c(c3ccccc3oc1=O)N2` (stereo not given), the emission maximum (in CS(C)=O) stood at 443 nm.

In turn, `CCNc1cc2c(cc1C)C(c1ccccc1C(=O)O)=C1CCCC(/C=C/C3=[N+](C)c4ccccc4C3(C)C)=C1O2` came in with an emission maximum (in CC#N) of 728 nm, an emission maximum (in CCO) of 721 nm, an emission maximum (in CO) of 720 nm and an emission maximum (in ClC(Cl)Cl) of 722 nm.

For the setting “in C1CCOC1”, `CC(C)(C)c1ccc(-c2c(-c3ccc(N(c4ccccc4)c4ccccc4)cc3)c(C#N)c(-c3ccc(N(c4ccccc4)c4ccccc4)cc3)c(-c3ccc(C(C)(C)C)cc3)c2-c2ccc(C(C)(C)C)cc2)cc1` showed an emission maximum of 443 nm.

`CCn1c(-c2ccc(-c3ccc(-c4ccc(-c5n(CC)c6cc(C)ccc6[n+]5CC)cc4)cc3)cc2)[n+](CC)c2ccc(C)cc21` yielded an emission maximum (in O) of 397 nm.

Molecule `c1ccc(-c2ccc(-c3cn4ccc[n+]4[n-]3)cc2)cc1` returned an emission maximum (in ClCCl) of 456 nm.

`CCOC(=O)c1c(-c2cc3ccccc3oc2=O)nn(-c2ccccc2)c1C(=O)OCC` registered an emission maximum (in ClCCl) of 401 nm.

`O=C1c2ccc3c4c(Oc5ccccc5)cc5c6c(ccc(c7c(Oc8ccccc8)cc(c2c37)C(=O)N1c1ccc(O)cc1)c64)C(=O)N(c1ccc(O)cc1)C5=O`: the emission maximum reads like this: (in C1CCOC1) 564 nm; (in CN1CCCC1=O) 592 nm; (in CN(C)C=O) 576 nm.

In the case of `COC(=O)c1cc(=O)n(C)c2cc(-c3cc(OC)c(OC)c(OC)c3)sc12`, the emission maximum runs as follows: (in CC#N) 495 nm; (in ClCCl) 485 nm.

In the case of `c1ccc(-c2nc(-c3ccccc3)nc(-c3ccc(-n4c5ccccc5c5c6c(ccc54)C4(c5ccccc5-c5ccccc54)c4ccccc4-6)cc3)n2)cc1`, the emission maximum reads like this: (in C1CCOC1) 488.19 nm; (in C1COCCO1) 453.7 nm; (in CN(C)C=O) 525.23 nm; (in Cc1ccccc1) 444 nm; (in ClC(Cl)Cl) 496.99 nm.

In turn, `Cc1cc(-c2nnc(-c3c(C(C)C)cc(C(C)C)cc3C(C)C)o2)ccc1-n1c2ccccc2c2ccccc21` returned an emission maximum (in CCO) of 440 nm and an emission maximum (in Cc1ccccc1) of 375 nm.

The record behind these values is the Deep4Chem optical property database.
